According to publication PMC7870773, “Investigation of the cytotoxicity of bioinspired coumarin analogues towards human breast cancer cells” (Molecular Diversity, 2020):

Legend:
[1] = test system: MCF-7 breast cancer cells; experiment: MTT cell viability, 48-h incubation, complete medium, MCF-7; format: cell-based, human; conditions: for IC50: Homo sapiens, MCF7, 48-h incubation, complete medium, mean ± SD
Description: (§1) Unless otherwise specified, all cell culture experiments were performed in a humidified 5% (v/v) CO2 air atmosphere at 37 °C in complete medium, and cell culture growth media were supplemented with 10% (v/v) foetal bovine serum and 2 mM L-glutamine. Human breast adenocarcinoma cell lines were cultured, maintained at densities lower than 1 × 10^6 cells/cm^2 and discarded upon reaching passage number 60. Stromal healthy cells (human colorectal fibroblasts, 18Co) were cultured using complete DMEM medium supplemented also with 1% (v/v) penicillin–streptomycin. Cells were maintained at densities less than 1 × 10^6 cells/cm^2 and discarded upon reaching passage number 12.
(§2) The full library of coumarins was tested in both breast cancer cell lines, i.e. MCF-7 and MDA-MB-231. Fibroblast were used as “healthy” control. Stocks of compounds 3a–3c, 4a–4m and 5 were dissolved in pure DMSO and then diluted in complete media. (Note that DMSO concentration was kept lower than 0.5% (v/v).) Briefly, MCF-7 and MDA-MB-231 cells were seeded in 96-well plates (3799, Corning Inc., NY, USA) at a density of 1 × 10^4 and 6.7 × 10^3 cells/cm^2, respectively, whereas 18Co fibroblasts were seeded at a density of 1 × 10^4 cells/cm^2. Cells were incubated with coumarin derivatives at concentrations 0.1, 1, 10, 50, 100 and 250 μM for 48 h. Untreated cells (negative) and cells incubated with 0.5% (v/v) DMSO in complete media (positive) were used as controls.
(§3) For each treatment, cell viability was measured via MTT assay after 48-h incubation as following described. Cell culture medium was replaced with 150 μL of fresh medium and 30 μL of MTT solution, and cells were incubated for 4 h (37 °C, 5% CO2). After the formazan crystal formation, cell culture medium was removed from each well and replaced with 200 μL of DMSO. The absorbance was measured at 540-nm wavelength using a plate reader (Synergy 2 Biotek plate reader, Gen5 software).
(§4) IC50 values were calculated (nonlinear regression, normalized response–variable slope) with GraphPad Prism (version 7.04). Values were ranked and classified as: high toxicity, moderate toxicity, poor toxicity and no toxicity. Threshold were set as 60, 80 and > 100 μM, respectively. The selection was used in order to test only the most toxic coumarins under cell culture condition more relevant to the tumour microenvironment, i.e. deprived cell culture media (Sect. 3.3).

[2] = test system: MDA-MB-231 breast cancer cells; experiment: MTT cell viability, 48-h incubation, complete medium, MDA-MB-231; format: cell-based, human; conditions: for IC50: Homo sapiens, MDA-MB-231, complete medium, mean ± SD
Description: as §1, §2, §3, §4

18Co colon fibroblasts = experiment: MTT cell viability, 48-h incubation, 18Co fibroblasts (healthy control); format: cell-based, human; conditions: for IC50: Homo sapiens, Fibroblast, 48-h incubation, healthy control, mean ± SD
Description: as §1, §2, §3, §4

[3] = test system: MCF-7 breast cancer cells; experiment: MTT cell viability under nutrient-deprived conditions, MCF-7; format: cell-based; conditions: Homo sapiens, MCF7, up to 48 h, average ± SD
Description: (§5) Cells were culture using nutrient-deprived cell culture conditions (i.e. cell culture media with no glucose, L-glutamine, HEPES and sodium pyruvate) to mimic conditions similar to the tumour microenvironment. Note that these experiments were performed only using breast cancer cells. MCF-7 and MDA-MB-231 cells were seeded in 96-well plates (Corning Inc., NY, USA) at a density of 1 × 10^4 and 6.7 × 10^3 cells/cm^2, respectively. Cells were incubated with coumarin derivatives at concentrations of 0.1, 1, 10, 50, 100 and 250 μM up to 48 h. Untreated cells (negative) and cells incubated with 0.5% (v/v) DMSO in complete media (positive) were used as controls.
as §3, §4
(§6) On that basis, we exposed the breast cancer cells to nutrient-deprived conditions where culture media were supplemented only with 2.5% v/v FBS, but not additional glucose, L-glutamine, sodium pyruvate. The coumarins tested were auraptene (4k), umbelliprenin (4l) and analogues 4d, 4c and 4g. […] In similar studies, Zhang et al. and Jun et al. reported the high preferential cytotoxicity of umbelliprenin (4l) and its C6 analogue under NDC against pancreatic cancer cells. It should be therefore noted that these derivatives could represent a potential new tool for treating aggressively metastatic hypoxic tumours. The exact mechanism of action, though, should be further investigated.

[4] = test system: MDA-MB-231 breast cancer cells; experiment: MTT cell viability under nutrient-deprived conditions, MDA-MB-231; format: cell-based; conditions: Homo sapiens, up to 48 h, average ± SD
Description: as §5, §3, §4, §6

SMILES: CCCCCCCCOc1ccc2c(CCC)cc(=O)oc2c1 [4f, 7-Octyloxy-4-propyl-2H-chromen-2-one]
- IC50 [1]: 124 ± 39 µM
- IC50 [2]: 143 ± 34 µM
- melting point: 47 °C

SMILES: Cc1cc(=O)oc2cc(O)cc(O)c12 [3b, 5,7-Dihydroxy-4-methyl-2H-chromen-2-one]
- IC50 [1]: > 250 µM
- IC50 [2]: > 250 µM

SMILES: CC(=O)Oc1cc(OC(C)=O)c2c(C)cc(=O)oc2c1 [compound 5, 5,7-Diacetyloxy-4-methyl-2H-chromen-2-one]
- IC50 [1]: > 250 µM
- IC50 [2]: > 250 µM

SMILES: CC(C)=CCC/C(C)=C/COc1ccc2c(C)cc(=O)oc2c1 [4b, 7-Geranyloxy-4-methyl-2H-chromen-2-one]
- IC50 [1]: 129 ± 13 µM
- IC50 [2]: 137 ± 9 µM

SMILES: CC(C)=CCOc1ccc2ccc(=O)oc2c1 [4j, 7-Prenyloxy-2H-chromen-2-one]
- IC50 [1]: 143 ± 11 µM
- IC50 [2]: 175 ± 33 µM

SMILES: CCCCCCCCOc1ccc2c(C)cc(=O)oc2c1 [4d, 4-Methyl-7-octyloxy-2H-chromen-2-one]
- IC50 [1]: 82 ± 19 µM
- cytotoxicity in words, MDA-MB-231 [2]: slight toxic effect
- IC50 [2]: 113 ± 7 µM
- IC50 (18Co colon fibroblasts): 206 ± 17 µM
- IC50 [3]: 29 ± 3 µM
- IC50 [4]: 63 ± 5 µM
- melting point: 51 °C

SMILES: CC(C)=CCC/C(C)=C/CC/C(C)=C/CC/C(C)=C/COc1ccc2ccc(=O)oc2c1 [4m, 7-Geranylgeranyloxy-coumarin]
- IC50 [1]: > 250 µM
- IC50 [2]: 187 ± 66 µM
- melting point: 72 to 73 °C

SMILES: CCCc1cc(=O)oc2cc(OC/C=C(\C)CCC=C(C)C)cc(OC/C=C(\C)CCC=C(C)C)c12 [4i, 5,7-Digeranyloxy-4-propyl-2H-chromen-2-one]
- IC50 [1]: > 250 µM
- IC50 [2]: 133 ± 34 µM
- melting point: 79 °C

SMILES: CC(C)=CCCC(C)=CCCC(C)=CCOc1ccc2ccc(=O)oc2c1 [4l, 7-Farnesyloxy-coumarin]
- IC50 [1]: 98 ± 9 µM
- IC50 [2]: 88 ± 3 µM
- IC50 (18Co colon fibroblasts): > 250 µM
- IC50 [3]: 9 ± 1 µM
- IC50 [4]: 7 ± 2 µM

SMILES: CC(C)=CCC/C(C)=C/COc1ccc2ccc(=O)oc2c1 [4k, 7-Geranyloxy-2H-chromen-2-one]
- IC50 [1]: 70 ± 5 µM
- IC50 [2]: 60 ± 4 µM
- IC50 (18Co colon fibroblasts): 176 ± 62 µM
- toxicity in words, 18Co fibroblasts (18Co colon fibroblasts; healthy control cells): some toxicity
- IC50 [3]: 14 ± 5 µM
- IC50 [4]: 12 ± 8 µM

SMILES: O=c1ccc2ccc(O)cc2o1 [3c, 7-hydroxy-coumarin]
- IC50 [1]: > 250 µM
- IC50 [2]: > 250 µM
- IC50 (18Co colon fibroblasts): > 250 µM

SMILES: CC(C)=CCOc1cc(OCC=C(C)C)c2c(C)cc(=O)oc2c1 [4g, 5,7-Diprenyloxy-4-methyl-2H-chromen-2-one]
- IC50 [1]: 69 ± 14 µM
- fold more cytotoxic than monosubstituted analogue 4a ([1]; MCF-7 cells, 4g versus 4a): approximately 2.5 times
- IC50 [2]: 144 ± 16 µM
- IC50 (18Co colon fibroblasts): 216 ± 23 µM
- IC50 [3]: 35 ± 9 µM
- IC50 [4]: 11 ± 2 µM
- melting point: 90 °C

SMILES: CCCc1cc(=O)oc2cc(O)ccc12 [3a, 7-Hydroxy-4-propyl-2H-chromen-2-one]
- IC50 [1]: 225 ± 19 µM
- IC50 [2]: 206 ± 9 µM
- melting point: 130 °C

SMILES: COc1cccc2c1C(=O)c1c(O)c3c(c(O)c1C2=O)C[C@@](O)(C(=O)CO)C[C@@H]3O[C@H]1C[C@H](N)[C@H](O)[C@H](C)O1 [doxorubicin, reference compound]
- IC50 [1]: 0.97 µM
- IC50 [2]: 0.48 µM

SMILES: CC(C)=CCOc1ccc2c(C)cc(=O)oc2c1 [4a, 7-Prenyloxy-4-methyl-2H-chromen-2-one]
- IC50 [1]: 179 ± 35 µM
- IC50 [2]: 169 ± 23 µM
- melting point: 84 °C

SMILES: CC(C)=CCCC(C)=CCCC(C)=CCOc1ccc2c(C)cc(=O)oc2c1 [4c, 7-Farnesyloxy-4-methyl-2H-chromen-2-one]
- IC50 [1]: 105 ± 3 µM
- IC50 [2]: 110 ± 29 µM
- IC50 (18Co colon fibroblasts): > 250 µM
- IC50 [3]: 19 ± 3 µM
- IC50 [4]: 51 ± 9 µM

SMILES: CCCc1cc(=O)oc2cc(OCC=C(C)C)ccc12 [4e, 7-Prenyloxy-4-propyl-2H-chromen-2-one]
- IC50 [1]: > 250 µM
- IC50 [2]: > 250 µM
- melting point: 89 °C

SMILES: CCCc1cc(=O)oc2cc(OCC=C(C)C)cc(OCC=C(C)C)c12 [4h, 5,7-Diprenyloxy-4-propyl-2H-chromen-2-one]
- IC50 [1]: 234 ± 76 µM
- IC50 [2]: 159 ± 61 µM
- melting point: 71 to 72 °C
